Converted amounts (≈) assume the structure as drawn. “Also recorded” adds a separate entry of the source. Read-outs that look alike come from different tables or passages of the source.
Assays:
B. subtilis = test: Growth inhibition (broth microdilution), B. subtilis; format: cell-based; conditions: Bacillus subtilis; for MIC50: read-out: B. Subtilis MIC50; for MIC90: read-out: B. Subtilis MIC90; for IC50: Table 3
Experimental: (§1) The antimicrobial activity of each triazine compound was tested by following standard broth microdilution protocols recommended by the National Committee for Clinical Laboratory Standard. All compounds were initially tested against Bacillus subtilis (ATCC 6633; Rockville, Md.). Bacteria were grown in Mueller Hinton Broth (MHB) at 37° C. for overnight. Then, cultures were diluted in MHB to a final concentration of 2×10^4 to 2×10^5 CFU/mL. Bacterial inocula were incubated at 37° C. in PBS buffer (pH 7.2) with varying concentrations of 2-fold dilution of triazine stocks. The 18-hour absorbance data were used to calculate the percent inhibition for each sample by comparing with the absorbance of cultures without triazine compounds. Bacterial growth was measured by turbidity as optical density at 600 nm using a Genesys 5 Spectrophotometer (Rochester, N.Y.).

S. aureus = test: Growth inhibition (broth microdilution), S. aureus; format: cell-based, Staphylococcus aureus; conditions: for IC50: Table 3
Source text: (§2) The antimicrobial activity of each peptide can be tested following standard broth microdilution protocols recommended by the National Committee for Clinical Laboratory Standard. Multidrug-resistant Staphylococcus aureus strain (ATCC BAA-44) and Acinetobacter baumannii (ATCC BAA-747) can be used in this study, as well as Ampicillin- and streptomycin-resistant Escherichia coli (D31), obtained from the E. coli Genetic Resource Center (Yale University, New Haven, Conn.). Bacteria can be grown overnight in Tryptic Soy broth at 37° C. Then, cultures are diluted in Mueller-Hinton broth to a final concentration range of 2×10^4 to 2×10^5 CFU/ml. Bacterial inocula are incubated at 37° C. in phosphate-buffered saline (PBS) buffer (pH7.2) with various dilutions of peptide stock. The 18-hour absorbance data are used to calculate the percentage of inhibition for each sample by comparison with the absorbance of cultures without sample. Bacterial growth is measured by turbidity as optical density at 600 nm (OD600), using a Genesys 5 Spectrophotometer (Rochester, N.Y.) or equivalent instrument. All assays can be carried out in triplicate. The concentration of peptide that results in 50% inhibition of growth is recorded as the IC50. In addition the concentration of agents needed can be monitored to reduce the bacterial population by three logs, IC99.9. This is a more rigorous indicator of the amount needed to prevent an infection.
as §1

E. coli D31 = test: Growth inhibition (broth microdilution), E. coli D31; format: cell-based, Escherichia coli
Source text: as §2, §1

fresh sheep erythrocytes = test: Hemolytic activity; format: cell-based
Experimental: Hemolytic activity of triazine compounds is assessed using fresh sheep erythrocytes (Fitzgerald Inc., Concord, Mass.). The red blood cell suspension is incubated in PBS buffer (pH 7.2) with varying concentrations of sample stocks at 37° C. for 30 minutes, and then spun down at 3,000 rpm for 10 mins. The resulting supernatant is diluted by a factor of 40 with distilled water. The absorbance of the supernatant at 540 nm is measured using a Genesys 5 Spectrophotometer. Zero % and 100% hemolysis controls are obtained by incubating the cells with buffer and 1% Triton-X, respectively.
Hemolytic activity of three triazine compounds Is assessed on fresh sheep erythrocytes (Fitzgerald Inc., Concord, Mass.). The red blood cell suspension Is incubated in PBS buffer (pH 7.2) with varying concentrations of sample stocks at 37° C. for 30 minutes, and then spun down at 3,000 rpm for 10 mins. The resulting supernatant is diluted by a factor of 40 in distilled water. The absorbance of the supernatant at 540 nm is measured using a Genesys 5 Spectrophotometer. Zero hemolysis and 100% hemolysis controls are obtained by incubating the cells with buffer and 1% Triton-X, respectively. Sample concentration yielding 50% hemolysis is used as hemolytic dose (HD50) determined from dose-response curves.

A. baumannii [1] = test: Evolution of resistance on exposure to sublethal concentrations; format: cell-based; conditions: 400 generations of exposure to sublethal concentrations
Source text: FIG. 1 graphically depicts the experimental evaluation of the ability of A. baumannii to evolve resistance to sublethal TN5 and the AMP indolicidin relative to two antibiotics in current use. Changes in the IC50 of cultures exposed to sublethal doses of TN5 are expressed as ratios of the new to original values. For reference, the response of these cells to two current antibiotics is shown.
In particular, FIG. 1 depicts the results of the experimental evaluation of the ability of A. baumannii to evolve resistance to sublethal TN5 and the AMP indolicidin relative to two antibiotics in current use. Changes in the IC50 of cultures exposed to sublethal doses of TN5 are expressed as ratios of the new to original values. For reference, the response of these cells to ciprofloxacin and gentamycin, two current antibiotics is shown.

A. baumannii [2] = test: Growth inhibition (broth microdilution), A. baumannii; format: cell-based, Acinetobacter baumannii; conditions: Table 1
Source text: as §2, §1

[3] = system: E. coli RP437/pRSH103 biofilm; test: Biofilm formation in 96 well plate (crystal violet, OD540); format: cell-based
Experimental: This assay is based on the protocols described previously (Li, 2001 #745; Pratt, 1998 #725) with slight modifications. Briefly, E. coli RP437 or the test strain is used to form biofilms in 96 well plates in the presence of dendrimer peptides (RW)4D or other agents. An overnight culture of E. coli RP437 grown in LB medium is used to inoculate LB medium in 96 well plates to an OD600 of 0.05. The peptides can be added to a final concentration of 0, 5, 10, 20, or 40 μM, respectively. Four replicates are tested for each condition. All samples are incubated at 37° C. without shaking for 24 hours to form the film. Then planktonic cells are removed and the plates with biofilms are washed three times with DI H2O and dried by gentle patting on a piece of paper towel. To stain the biofilms, 300 μL of 0.1% crystal violet is added into each well and incubated for 20 minutes at room temperature. Then the plates are washed three times with DI H2O to remove extra staining dye. OD540 is then measured to quantify the biofilm on the bottom of each well.
(§3) The strain for this experiment used was E. coli RP437/pRSH103, a strong film forming strain. The surface studied was that of a 96 well plate. Culture conditions were 24 hours or 48 hours of incubation in Luria-Bertani Broth (LB) supplemented with 10 μg/mL tetracycline at 37° C. The following assays were performed:
(§4) 1. Measurement of total cell growth in each well using OD600. 2. Quantification of the biofilm at the bottom of each well by staining with 0.1% crystal violet and reading OD540.
2. Quantification of total biofilm by dissolving the crystal violet with ethanol and reading at OD540 Absorbance at 540 nm and 600 nm with the medium and triazine only (no cells) was also measured to control the results by subtracting the background reading.

[4] = system: E. coli RP437/pRSH103 planktonic cells; test: Total planktonic cell growth (OD600); format: cell-based; conditions: concentration range 0-5 μg/mL
Experimental: as §3, §4

[5] = Staphylococcus aureus, Table 2, read-out: S. Aureus MIC50
[6] = Staphylococcus aureus, Table 2, read-out: S. Aureus MIC90
[7] = Escherichia coli, D31, Table 2, read-out: E. Coli MIC50
[8] = Escherichia coli, D31, Table 2, read-out: E. Coli MIC90
[9] = Escherichia coli, D31, Table 3, read-out: E. coli IC50

| Compound | MIC50 (B. subtilis; Table 2) [µg/mL] | MIC90 (B. subtilis; Table 2) [µg/mL] | IC50 (B. subtilis) [µg/mL] | MIC50 (S. aureus; [5]) [µg/mL] | MIC90 (S. aureus; [6]) [µg/mL] | IC50 (S. aureus; Staphylococcus aureus) [µg/mL] | MIC50 (E. coli D31; [7]) [µg/mL] | MIC90 (E. coli D31; [8]) [µg/mL] | HD50 (fresh sheep erythrocytes; Table 3) [µg/mL] | Acquired resistance (change in IC50, ratio of new to original) (A. baumannii [1]) | MIC50 (S. aureus; S. aureus, Table 1) [µg/mL] | MIC90 (S. aureus; S. aureus, Table 1) [µg/mL] | MIC50 (A. baumannii [2]) [µg/mL] | MIC90 (A. baumannii [2]) [µg/mL] | MIC50 (E. coli D31; E. coli D31, Table 1) [µg/mL] | MIC90 (E. coli D31; E. coli D31, Table 1) [µg/mL] | HD50 (fresh sheep erythrocytes; 50% hemolysis, Table 1) [µg/mL] | other results |
| --- | --- | --- | --- | --- | --- | --- | --- | --- | --- | --- | --- | --- | --- | --- | --- | --- | --- | --- |
| NCCCNc1nc(NCCc2c[nH]c3ccccc23)nc(NCCc2c[nH]c3ccccc23)n1 [TZ-WKW] | 1.5 (≈ 3.19 µM) | 2.3 (≈ 4.9 µM) | 1.5 (≈ 3.19 µM) | 3.4 (≈ 7.24 µM) | 4.4 (≈ 9.37 µM) | 3.4 (≈ 7.24 µM) | 4.5 (≈ 9.58 µM) | 6 (≈ 12.8 µM) | 65 | – | – | – | – | – | – | – | – | IC50 (E. coli D31; Escherichia coli, D31, read-out: E. coli IC50): 4.5 µg/mL (≈ 9.58 µM) |
| O=C(O)c1cn(C2CC2)c2cc(N3CCNCC3)c(F)cc2c1=O [ciprofloxacin] | – | – | – | – | – | – | – | – | – | significant increase in the IC50 | – | – | – | – | – | – | – | – |
| N=C(N)NCCNc1nc(NCCc2c[nH]c3ccccc23)nc(NCCc2c[nH]c3ccccc23)n1 [TZ-WRW] | 2.9 (≈ 5.83 µM) | 5.1 (≈ 10.2 µM) | 2.9 (≈ 5.83 µM) | 3.3 (≈ 6.63 µM) | 3.5 (≈ 7.03 µM) | 3.3 (≈ 6.63 µM) | 4.1 (≈ 8.24 µM) | 9.1 (≈ 18.3 µM) | 43.6 | – | – | – | – | – | – | – | – | IC50 (E. coli D31; [9]): 4.1 µg/mL (≈ 8.24 µM) |
| CCCCN(CCCC)CCCNc1nc(NCc2ccccc2)nc(NCc2cccc3ccccc23)n1 [TN4] | – | – | – | – | – | – | – | – | – | – | 68 (≈ 129 µM) | 117.5 (≈ 223 µM) | 302.5 (≈ 575 µM) | 462.5 (≈ 880 µM) | 18.8 (≈ 35.8 µM) | 62.5 (≈ 119 µM) | 221.3 | – |
| CN[C@H](CC(C)C)C(=O)N[C@H]1C(=O)N[C@@H](CC(N)=O)C(=O)N[C@H]2C(=O)N[C@H]3C(=O)N[C@H](C(=O)N[C@H](C(=O)O)c4cc(O)cc(O)c4-c4cc3ccc4O)[C@H](O)c3ccc(c(Cl)c3)Oc3cc2cc(c3O[C@@H]2O[C@H](CO)[C@@H](O)[C@H](O)[C@H]2O[C@H]2C[C@](C)(N)[C@H](O)[C@H](C)O2)Oc2ccc(cc2Cl)[C@H]1O [Vancomycin, reference compound] | – | – | – | – | – | – | – | – | – | marked contrast | – | – | – | – | – | – | – | MIC50 (B. subtilis): < 0.8 µg/mL; MIC90 (B. subtilis): < 0.8 µg/mL; MIC50 (S. aureus; Staphylococcus aureus, read-out: S. Aureus MIC50): 0.8 µg/mL (≈ 0.552 µM); MIC90 (S. aureus; Staphylococcus aureus, read-out: S. Aureus MIC90): 1.2 µg/mL (≈ 0.828 µM); MIC50 (E. coli D31; Escherichia coli, D31, read-out: E. Coli MIC50): 192 µg/mL (≈ 132 µM); MIC90 (E. coli D31; Escherichia coli, D31, read-out: E. Coli MIC90): > 200 µg/mL |
| NCCCCNc1nc(NCc2ccccc2)nc(Nc2cccc3ccccc23)n1 [TN3] | – | – | – | – | – | – | – | – | – | – | 50.1 (≈ 121 µM) | 71.3 (≈ 172 µM) | 50.8 (≈ 123 µM) | 77.4 (≈ 187 µM) | 40 (≈ 96.7 µM) | 84.8 (≈ 205 µM) | 901.9 | – |
| NCCCCNc1nc(NCc2ccccc2)nc(NCc2cccc3ccccc23)n1 [TN5] | – | – | – | – | – | – | – | – | – | does not acquire resistance | 5.9 (≈ 13.8 µM) | 9.8 (≈ 22.9 µM) | 3 (≈ 7.02 µM) | 5.1 (≈ 11.9 µM) | 4.75 (≈ 11.1 µM) | 8.9 (≈ 20.8 µM) | 167.5 | Biofilm formation ([3]; E. coli): prevents film formation; Biofilm formation ([3]; E. coli, listed as TN-5): prevents formation of biofilms; Biofilm formation ([3]; at 1, 5, 10 μg/mL, 24 or 48 hours in LB): inhibited biofilm formation; Growth of planktonic cells [4]: does not inhibit growth of planktonic cells |
| CCCCN(CCCC)CCCNc1nc(NCCc2c[nH]c3ccccc23)nc(NCCc2c[nH]c3ccccc23)n1 [TZ-WK(Bu)2W] | 1 (≈ 1.72 µM) | 3.1 (≈ 5.33 µM) | 1 (≈ 1.72 µM) | 1.8 (≈ 3.09 µM) | 2.4 (≈ 4.13 µM) | 1.8 (≈ 3.09 µM) | 21.3 (≈ 36.6 µM) | 55.2 (≈ 94.9 µM) | 91.5 | – | – | – | – | – | – | – | – | IC50 (E. coli D31; [9]): 21.3 µg/mL (≈ 36.6 µM) |
| CCCCN(CCCC)CCCNc1nc(NCc2ccccc2)nc(Nc2cccc3ccccc23)n1 [TN2] | – | – | – | – | – | – | – | – | – | – | 12.1 (≈ 23.6 µM) | 14.55 (≈ 28.4 µM) | 12.8 (≈ 25 µM) | 15.8 (≈ 30.9 µM) | 26.9 (≈ 52.6 µM) | 55.6 (≈ 109 µM) | 840.8 | – |
| gentamycin | – | – | – | – | – | – | – | – | – | marked contrast; also recorded: significant increase in the IC50 | – | – | – | – | – | – | – | – |

Reference: patent US9273015B2, “s-Triazine compounds, pharmaceutical compositions and methods of using the same” (NEW YORK UNIVERSITY, priority 2010, dated 2016)
